Tested on: K-562 leukemia growth, % test/control
Assay: Anticancer human tumor K-562 cell line growth inhibition;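 note: spheroids exposed to compounds for 7 days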;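 for viability, T/C: 100% = DMSO vehicle wells and lower values mean fewer viable cells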
Conditions: spheroids with HUVEC and MSC; for IC50: curve of first compound; for viability, T/C: stronger effect = lower value
Outline: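 Drug combinations with the LSD1 inhibitor iadademstat tested on tumor cells co-cultured as spheroids with endothelial cells and mesenchymal stem cells. Concentrations descended in half-log increments from clinical Cmax or 10 microM.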

[1] = second compound 0.1 µM, first compound 0.0316 µM
[2] = second compound 0.1 µM, first compound 0.1 µM
[3] = second compound 0.316 µM, first compound 0.0316 µM
[4] = second compound 0.316 µM, first compound 0.1 µM
[5] = second compound 1 µM, first compound 0.0316 µM
[6] = second compound 1 µM, first compound 0.1 µM
[7] = second compound 3.16 µM, first compound 0.0316 µM
[8] = second compound 3.16 µM, first compound 0.1 µM
[9] = second compound 10 µM, first compound 0.0316 µM
[10] = second compound 10 µM, first compound 0.1 µM

Compound `CC(C)CC(NC(=O)C(Cc1ccccc1)NC(=O)c1cnccn1)B(O)O` (stereo not given) + NC1CCC(NC2CC2c2ccccc2)CC1 has an IC50 (second compound 0.1 µM) of 0.0019 µM, an IC50 (second compound 0.316 µM) of 0.00194 µM and an IC50 (second compound 1 µM) of 0.00195 µM. The IC50 (second compound 3.16 µM) was 0.00177 µM, the IC50 (second compound 10 µM) was 0.000977 µM and the viability, T/C (second compound 0.1 µM, first compound 0.000316 µM) was 99%. It also gave a viability, T/C (second compound 0.1 µM, first compound 0.001 µM) of 101%, a viability, T/C (second compound 0.1 µM, first compound 0.00316 µM) of 10.2% and a viability, T/C (second compound 0.1 µM, first compound 0.01 µM) of 2.14%. For the same compound, the viability, T/C [1] was 1.84%, the viability, T/C [2] was 0.67% and the viability, T/C (second compound 0.316 µM, first compound 0.000316 µM) was 99.3%. The viability, T/C (second compound 0.316 µM, first compound 0.001 µM) was 102%, the viability, T/C (second compound 0.316 µM, first compound 0.00316 µM) was 12.7% and the viability, T/C (second compound 0.316 µM, first compound 0.01 µM) was 2.31%. It also gave a viability, T/C [3] of 0.86%, a viability, T/C [4] of 2.09% and a viability, T/C (second compound 1 µM, first compound 0.000316 µM) of 104%. It also gave a viability, T/C (second compound 1 µM, first compound 0.001 µM) of 101%, a viability, T/C (second compound 1 µM, first compound 0.00316 µM) of 13.5% and a viability, T/C (second compound 1 µM, first compound 0.01 µM) of 1.19%. The viability, T/C [5] was 1.68%, the viability, T/C [6] was 1.1% and the viability, T/C (second compound 3.16 µM, first compound 0.000316 µM) was 105%. For the same compound, the viability, T/C (second compound 3.16 µM, first compound 0.001 µM) was 87.8%, the viability, T/C (second compound 3.16 µM, first compound 0.00316 µM) was 11.7% and the viability, T/C (second compound 3.16 µM, first compound 0.01 µM) was 1.18%. For the same compound, the viability, T/C [7] was 2.66%, the viability, T/C [8] was 0.99% and the viability, T/C (second compound 10 µM, first compound 0.000316 µM) was 97.1%. For the same compound, the viability, T/C (second compound 10 µM, first compound 0.001 µM) was 49%, the viability, T/C (second compound 10 µM, first compound 0.00316 µM) was 9.37% and the viability, T/C (second compound 10 µM, first compound 0.01 µM) was 1.01%. The viability, T/C [9] was 0.67% and the viability, T/C [10] was 1.77%.
Compound `Nc1ccccc1NC(=O)c1ccc(CNC(=O)OCc2cccnc2)cc1` + NC1CCC(NC2CC2c2ccccc2)CC1 has an IC50 (second compound 0.1 µM) of 0.274 µM, an IC50 (second compound 0.316 µM) of 0.325 µM and an IC50 (second compound 1 µM) of 0.28 µM. For the same compound, the IC50 (second compound 3.16 µM) was 0.225 µM, the IC50 (second compound 10 µM) was 0.0755 µM and the viability, T/C (second compound 0.1 µM, first compound 0.00949 µM) was 106%. For the same compound, the viability, T/C (second compound 0.1 µM, first compound 0.03 µM) was 106%, the viability, T/C (second compound 0.1 µM, first compound 0.0949 µM) was 103% and the viability, T/C (second compound 0.1 µM, first compound 0.3 µM) was 45.5%. The viability, T/C (second compound 0.1 µM, first compound 0.949 µM) was 3.36%, the viability, T/C (second compound 0.1 µM, first compound 3 µM) was 0.18% and the viability, T/C (second compound 0.316 µM, first compound 0.00949 µM) was 107%. For the same compound, the viability, T/C (second compound 0.316 µM, first compound 0.03 µM) was 105%, the viability, T/C (second compound 0.316 µM, first compound 0.0949 µM) was 103% and the viability, T/C (second compound 0.316 µM, first compound 0.3 µM) was 53.5%. It also gave a viability, T/C (second compound 0.316 µM, first compound 0.949 µM) of 3.47%, a viability, T/C (second compound 0.316 µM, first compound 3 µM) of 0.16% and a viability, T/C (second compound 1 µM, first compound 0.00949 µM) of 106%. For the same compound, the viability, T/C (second compound 1 µM, first compound 0.03 µM) was 107%, the viability, T/C (second compound 1 µM, first compound 0.0949 µM) was 100% and the viability, T/C (second compound 1 µM, first compound 0.3 µM) was 46.9%. The viability, T/C (second compound 1 µM, first compound 0.949 µM) was 3.81%, the viability, T/C (second compound 1 µM, first compound 3 µM) was 0.17% and the viability, T/C (second compound 3.16 µM, first compound 0.00949 µM) was 105%. For the same compound, the viability, T/C (second compound 3.16 µM, first compound 0.03 µM) was 107%, the viability, T/C (second compound 3.16 µM, first compound 0.0949 µM) was 93.2% and the viability, T/C (second compound 3.16 µM, first compound 0.3 µM) was 35.6%. It also gave a viability, T/C (second compound 3.16 µM, first compound 0.949 µM) of 4.43%, a viability, T/C (second compound 3.16 µM, first compound 3 µM) of 1.18% and a viability, T/C (second compound 10 µM, first compound 0.00949 µM) of 92.5%. For the same compound, the viability, T/C (second compound 10 µM, first compound 0.03 µM) was 83.8%, the viability, T/C (second compound 10 µM, first compound 0.0949 µM) was 39.9% and the viability, T/C (second compound 10 µM, first compound 0.3 µM) was 14.1%. For the same compound, the viability, T/C (second compound 10 µM, first compound 0.949 µM) was 2.97% and the viability, T/C (second compound 10 µM, first compound 3 µM) was 0.24%.
In the case of `O=C(c1cc(Cc2n[nH]c(=O)c3ccccc23)ccc1F)N1CCN(C(=O)C2CC2)CC1` + NC1CCC(NC2CC2c2ccccc2)CC1, the IC50 (second compound 0.1 µM) is reported as > 10 µM, the IC50 (second compound 0.316 µM) is reported as > 10 µM and the IC50 (second compound 1 µM) is reported as > 10 µM. For the same compound, the IC50 (second compound 3.16 µM) was > 10 µM, the IC50 (second compound 10 µM) was > 10 µM and the viability, T/C [1] was 98.2%. The viability, T/C [2] was 97.4%, the viability, T/C (second compound 0.1 µM, first compound 0.316 µM) was 96% and the viability, T/C (second compound 0.1 µM, first compound 1 µM) was 94.2%. The viability, T/C (second compound 0.1 µM, first compound 3.16 µM) was 82.7%, the viability, T/C (second compound 0.1 µM, first compound 10 µM) was 51.2% and the viability, T/C [3] was 101%. For the same compound, the viability, T/C [4] was 99.6%, the viability, T/C (second compound 0.316 µM, first compound 0.316 µM) was 98.6% and the viability, T/C (second compound 0.316 µM, first compound 1 µM) was 95%. For the same compound, the viability, T/C (second compound 0.316 µM, first compound 3.16 µM) was 83.2%, the viability, T/C (second compound 0.316 µM, first compound 10 µM) was 51.2% and the viability, T/C [5] was 99.4%. The viability, T/C [6] was 100%, the viability, T/C (second compound 1 µM, first compound 0.316 µM) was 98.3% and the viability, T/C (second compound 1 µM, first compound 1 µM) was 94.4%. It also gave a viability, T/C (second compound 1 µM, first compound 3.16 µM) of 85.6%, a viability, T/C (second compound 1 µM, first compound 10 µM) of 53.1% and a viability, T/C [7] of 102%. For the same compound, the viability, T/C [8] was 101%, the viability, T/C (second compound 3.16 µM, first compound 0.316 µM) was 98.2% and the viability, T/C (second compound 3.16 µM, first compound 1 µM) was 95%. The viability, T/C (second compound 3.16 µM, first compound 3.16 µM) was 84.8%, the viability, T/C (second compound 3.16 µM, first compound 10 µM) was 54.4% and the viability, T/C [9] was 95.4%. It also gave a viability, T/C [10] of 98.8%, a viability, T/C (second compound 10 µM, first compound 0.316 µM) of 98.5% and a viability, T/C (second compound 10 µM, first compound 1 µM) of 92.2%. For the same compound, the viability, T/C (second compound 10 µM, first compound 3.16 µM) was 81% and the viability, T/C (second compound 10 µM, first compound 10 µM) was 53.3%.

From PubChem BioAssay AID1918948 (Molecular Pharmacology Branch, DTP, NCI, 2023)
